From US11559512B2, “Composition for prevention, alleviation, and/or treatment of heat illness” (priority 2017, dated 2023)
“Also recorded” adds a separate entry of the source. Where two headings read alike, the source gives them in different places.

Tests used:
[1] = tested on: human vascular endothelial cells (HUVECs)
Method: Then, 2 mL of trypsin/EDTA was added to the cells, and the cells were detached by incubation at 37° C. in a 5% CO2 environment. After the cell detachment, 5 mL/dish of a culture medium was added, and the cells were transferred to a 15-mL tube and centrifuged at 1200 rpm for 5 minutes in a centrifuge. The supernatant was removed, and then, the number of cells was adjusted to a cell density of 5×10^4 cells/mL using a cell counting kit by the addition of 5 mL of a culture medium. Then, two 6-well plates were used, and the solution with the adjusted HUVEC density was inoculated at 4 mL/well to 3 wells of each plate. Each phytochemical component was added at 4 μL (final concentration: 10 μM)/well to one well of each plate. Also, a phytochemical dissolving solution DMSO was added at 4 μL/well to the remaining wells to prepare a control. […]
Serial dilutions of auraptene were added to the cells, and the cell death of the HUVECs caused by heat stress was observed by crystal violet staining.

[2] = tested on: fat droplets in human vascular endothelial cells (HUVECs); assay: Intracellular fat droplets, BODIPY staining, confocal microscopy; assay type: cell-based
Method: (§1) Then, nine 35-mm dishes were provided, and 2 mL/dish of the solution with the adjusted HUVEC density was inoculated. Auraptene (10 mM) and tangeretin (10 mM) were each added at 2 μL (final concentration: 10 μM)/dish to three dishes. Also, DMSO was added at 2 μL/dish to the remaining 3 dishes to prepare a control.
The supernatant of the HUVECs cultured in each 35-mm dish was removed, and 2 mL/dish of 4% paraformaldehyde in a phosphate buffer solution was added. The cells were left standing at room temperature for 1 hour for cell fixation. The solution was removed, and then, the cells were rinsed twice. 1 mL/dish of BODIPY diluted 2000-fold with a FACS buffer was added, and the cells were left standing at room temperature for 30 minutes in the dark for reaction.
(§2) The solution was removed, and then, the cells were rinsed twice. Two drops of Diamond Antifade Mountant with DAPI were added to the cells, and a round glass cover was put on the cells, followed by fluorescence photographing under a confocal laser scanning microscope.

[3] = tested on: human vascular endothelial cells (HUVECs); assay: DiOC6 / PI staining and flow cytometry of HUVECs under heat stress load; assay type: cell-based; settings: heat stress load 40° C. for 2 days, flow cytometry, vs DMSO
Method: Two days later, the culture solution of each well was removed with an aspirator. […] The supernatant was removed, and then, 5 mL of a culture medium at 37° C. was added to the cells and stirred. After the stirring, DiOC6 (final concentration: 80 nM) was added to each 15-mL tube and reacted at the same temperature as the culture temperature for 30 minutes.
The supernatant was removed, and then, 1 mL of a culture medium was added to the cells, and 2 μL of PI (Sigma-Aldrich Co. LLC) was added. The cells thus supplemented were transferred to a FACS tube and measured in a flow cytometer (BD).
In order to quantify the effects, the cytotoxicity suppressive effects of auraptene (component A) and tangeretin (component T) inhibiting the cell death caused by the load of heat stress were quantified using DiOC6 staining and flow cytometry as described above. The DiOC6 dye is a reagent for measuring mitochondrial activity and is a reagent that can perform measurement based on the attenuation of the amount of fluorescence by cytotoxicity (cell death, etc.).

PPARγ = PPARγ expression in HUVECs, antibody staining, confocal microscopy; assay type: cell-based, human
Method: as §1, with “Then, six” for “Then, nine”, “to two” for “to three”, “remaining 2” for “remaining 3”
(§3) The supernatant of the HUVECs cultured in each 35-mm dish was removed, and 2 mL/dish of 4% paraformaldehyde in a phosphate buffer solution was added. The cells were left standing at room temperature for 1 hour.
(§4) The solution was removed, and then, the cells were rinsed twice. 2 mL/dish of 0.5% Triton-X00 (Wako Pure Chemical Industries, Ltd.) in PBS was added, and the cells were left standing at room temperature for 5 minutes. The solution was removed, and then, the cells were rinsed twice. 1 mL/dish of an anti-ABCD3 antibody, an anti-PPARα antibody or an anti-PPARγ antibody, each of which was diluted 150-fold with a FACS buffer, was added, and the cells were left standing at room temperature for 2 hours for reaction.
as §2, with “The solution was removed, and then, the cells were rinsed twice. 1 mL/dish of DyLight 649-labeled anti-Rabbit IgG antibody diluted 500-fold with a FACS buffer was added, and the cells were left standing at room temperature for 1 hour in the dark for reaction. The” for “The”

ABCD3 = ABCD3 expression in HUVECs, antibody staining, confocal microscopy; assay type: cell-based, human; settings: usual culture and heat stress load (40° C. for 3 days), vs DMSO
Method: as §1, with “Then, six” for “Then, nine”, “to two” for “to three”, “remaining 2” for “remaining 3”
as §3, §4
The solution was removed, and then, the cells were rinsed twice. […] Two drops of Diamond Antifade Mountant with DAPI were added to the cells, and a round glass cover was put on the cells, followed by fluorescence photographing under a confocal laser scanning microscope.

PPARα = PPARα expression in HUVECs, antibody staining, confocal microscopy; assay type: cell-based, human
Method: as §1, with “Then, six” for “Then, nine”, “to two” for “to three”, “remaining 2” for “remaining 3”
as §3, §4
as §2, with “The solution was removed, and then, the cells were rinsed twice. 1 mL/dish of DyLight 649-labeled anti-Rabbit IgG antibody diluted 500-fold with a FACS buffer was added, and the cells were left standing at room temperature for 1 hour in the dark for reaction. The” for “The”

[4] = HUVECs, 40° C. for 2 days, final concentration 10 μM
[5] = Table 2 summary, HUVECs 40° C., 37° C. as comparative control
[6] = HUVECs, 40° C. and 1 day, 10 μM, vs DMSO

With `C[N+](C)(C)C[C@H](O)CC(=O)[O-]` [L-carnitine, reference compound] the “concentration at which the cell death suppressive effect was confirmed (value in brackets)” value ([1]; HUVECs, 40° C. for 3 days, crystal violet staining) was 15 mM, the “concentration at which the cell death suppressive effect was observed” value ([1]; HUVECs, 40° C. for 3 days, 0, 1.2 or 2.5 mg/ml) was 2.5 mg/mL and the “concentration required relative to auraptene” value ([1]; cell death suppressive effect, HUVECs 40° C.) was “approximately 25000 times”.

In the case of `CC(C)(Oc1ccc(CCNC(=O)c2ccc(Cl)cc2)cc1)C(=O)O` [bezafibrate, reference compound], the “suppression of cytotoxicity caused by the load of heat stress (phase contrast microscopic observation)” value (“suppression of cytotoxicity caused” below) [1] is reported as “unable to suppress the cytotoxicity”.

For `C[N+](C)(C)[C@@H](Cc1c[nH]c(=S)[nH]1)C(=O)[O-]` [ergothioneine, reference compound], the “suppression of cytotoxicity caused” value [1, 4] was “unable to suppress the cytotoxicity”.

For `COc1ccc(-c2cc(=O)c3c(OC)c(OC)c(OC)c(OC)c3o2)cc1OC` [nobiletin, reference compound], the “suppression of cytotoxicity caused” value [1, 4] was “unable to suppress the cytotoxicity”.

`COc1ccc2ccc(=O)oc2c1CC=C(C)C` [osthol, reference compound] was tested, and the “suppression of cytotoxicity caused” value [1, 4] was “unable to suppress the cytotoxicity”.

`Oc1ccc(C=Cc2cc(O)cc(O)c2)cc1` [resveratrol, reference compound] was tested, and the “suppression of cytotoxicity caused” value [1] was “unable to suppress the cytotoxicity”.

For `C[S+]([O-])CCCCN=C=S` (centres unmarked) [sulforaphane, reference compound], the “suppression of cytotoxicity caused” value [1] was “unable to suppress the cytotoxicity”.

With `COc1ccc(-c2cc(=O)c3c(OC)c(OC)c(OC)c(OC)c3o2)cc1` [tangeretin, 4′,5,6,7,8-pentamethoxyflavone] the “amount of fat droplets under heat stress load” value ([2]; HUVECs, 40° C. for 2 days, 10 μM, BODIPY, vs DMSO) was “decrease in the amount of fat droplets; also recorded: decreased the amount of fat droplets”, the “amount of fat droplets at usual culture” value ([2]; HUVECs, usual culture (37° C.), 10 μM, vs DMSO) was “no change in the amount of fat droplets” and the “Amount of fat droplets” value [2, 5] was “Decreased”. For the same compound, the “number of DiOC6 staining-positive cells (suppression of cytotoxicity, cell death)” value [3] was “increased the number of DiOC6 staining-positive cells”, the “expression of PPARγ” value (PPARγ; [6]) was “increasing effect was not observed” and the PPARγ (PPARγ; [5]) was “Increased”. For the same compound, the “change in the expression of ABCD3” value (ABCD3) was “change in the expression of ABCD3 was not observed”, the “expression of PPARα” value (PPARα; [6]) was “increase in the expression of PPARα” and the PPARα (PPARα; [5]) was “Increased”. The “Cytotoxicity (cell death)” value [1] was “Suppressed” and the “cell survival by crystal violet staining” value ([1]; HUVECs cultured at 40° C. for 3 days, vs DMSO) was “evidently increased cell survival”.
